B1: cholesterol oxidase from Brevibacterium sterolicum, SEQ ID NO 2 (Brevibacterium sterolicum) (protein)
chain: STGPVAPLPTPPNFPNDIALFQQAYQNWSKEIMLDATWVCSPKTPQDVVRLANWAHEHDYKIRPRGAMHGWTPLTVEKGANVEKVILADTMTHLNGITVNTGGPVATVTAGAGASIEAIVTELQKHDLGWANLPAPGVLSIGGALAVNAHGAALPAVGQTTLPGHTYGSLSNLVTELTAVVWNGTTYALETYQRNDPRITPLLTNLGRCFLTSVTMQAGPNFRQRCQSYTDIPWRELFAPKGADGRTFEKFVAESGGAEAIWYPFTEKPWMKVWTVSPTKPDSSNEVGSLGSAGSLVGKPPQAREVSGPYNYIFSDNLPEPITDMIGAINAGNPGIAPLFGPAMYEITKLGLAATNANDIWGWSKDVQFYIKATTLRLTEGGGAVVTSRANIATVINDFTEWFHERIEFYRAKGEFPLNGPVEIRCCGLDQAADVKVPSVGPPTISATRPRPDHPDWDVAIWLNVLGVPGTPGMFEFYREMEQWMRSHYNNDDATFRPEWSKGWAFGPDPYTDNDIVTNKMRATYIEGVPTTENWDTARARYNQIDPHRVFTNGFMDKLLP

Tests used:
[1] = molecular target: Cholesterol oxidase I from Brevibacterium sterolicum (Brevibacterium sterolicum, UniProt P22637); conditions: read-out: KM (affinity for cholesterol); cited from earlier work
Chain of Cholesterol oxidase I from Brevibacterium sterolicum (P22637 46-552): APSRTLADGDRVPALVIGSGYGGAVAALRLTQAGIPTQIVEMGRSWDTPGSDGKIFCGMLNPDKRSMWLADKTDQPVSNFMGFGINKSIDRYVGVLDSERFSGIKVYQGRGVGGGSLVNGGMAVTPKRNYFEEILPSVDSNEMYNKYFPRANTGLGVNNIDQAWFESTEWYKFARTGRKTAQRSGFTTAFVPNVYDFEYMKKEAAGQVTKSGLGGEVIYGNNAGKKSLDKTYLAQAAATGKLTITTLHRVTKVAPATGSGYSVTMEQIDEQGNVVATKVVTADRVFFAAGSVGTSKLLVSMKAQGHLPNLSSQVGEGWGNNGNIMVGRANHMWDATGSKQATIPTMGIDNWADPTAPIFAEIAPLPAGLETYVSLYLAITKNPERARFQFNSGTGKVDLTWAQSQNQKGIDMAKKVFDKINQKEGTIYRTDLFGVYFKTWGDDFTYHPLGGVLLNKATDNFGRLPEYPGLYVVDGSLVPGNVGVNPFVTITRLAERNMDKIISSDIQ

[2] = substrate: CC(C)CCC[C@@H](C)[C@H]1CC[C@H]2[C@@H]3CC=C4C[C@@H](O)CC[C@]4(C)[C@H]3CC[C@]12C; test: KM value for cholesterol of the cholesterol oxidase according to the invention; format: biochemical, Brevibacterium sterolicum; conditions: other: in 0.5 mol/l potassium phosphate buffer pH 7.5 at 25° C.
Method: This cholesterol oxidase has a molecular weight of 60 kD, an isoelectric point of ca. 5.5 (each measured in the Phast System, Pharmacia LKB) and a KM value for cholesterol of 1×10^-4 mol/l (in 0.5 mol/l potassium phosphate buffer pH 7.5 at 25° C.) and is active in a pH range of 5.5 to 8.0.
3 ml potassium phosphate buffer (0.5 mol/l, pH 7.5) containing 0.4% Thesit® (Boehringer Mannheim GmbH, Catalogue No. 006190),
0.1 ml cholesterol solution (0.4% cholesterol, 10% l-propanol, 10% Thesit®),
0.02 ml H2 O2 (0.49 mol/l in redistilled water), it is mixed, after addition of 0.02 ml catalase (from bovine liver, 20 mg protein/ml, specific activity ca. 65,000 U/mg, Boehringer Mannheim GmbH, Catalogue No. 0156744 diluted immediately to 0.075-0.15 U/ml before measurement with ice-cold potassium phosphate buffer, containing 0.4% Thesit) it is again mixed, the solution is brought to a temperature of 25° C. and subsequently the reaction is started by addition of 0.05 ml sample solution. After careful mixing the change in absorbance at 240 nm is monitored and the activity of cholesterol oxidase is determined from the linear region of the absorbance curve: [formula] in which .di-elect cons. 240=15.5 mmol^-1 ×1×cm^-1.

Molecule | Km [1] | Km [2]
CC(C)CCC[C@@H](C)[C@H]1CC[C@H]2[C@@H]3CC=C4C[C@@H](O)CC[C@]4(C)[C@H]3CC[C@]12C [cholesterol, 5-cholesten-3-β-ol] | 1100 µM | 
B1 |  | 100 µM
